Assay results as given in ChEMBL document CHEMBL1130426, “Probing the mechanism of action and decomposition of amino acid phosphomonoester amidates of antiviral nucleoside prodrugs” (J Med Chem, 1997).
pEC50: −log10 of the molar value.

Key:
[1] = Cytotoxic concentration required to inhibit 50% […] in peripheral blood mononuclear cells (PBMC); assay type: functional; conditions: Homo sapiens
[2] = Effective concentration required to inhibit 50% of HIV-1 in peripheral blood mononuclear cells (PBMC); assay type: functional, Homo sapiens
CCRF-CEM = experiment: Cytotoxic concentration required to inhibit 50% […] in CEM cells; assay type: functional; conditions: Homo sapiens

| Structure (SMILES) | CC50 [1] | pEC50 [2] | CC50 (CCRF-CEM) |
| --- | --- | --- | --- |
| COC(=O)[C@H](Cc1ccccc1)NP(=O)(O)OCC1OC(n2cc(C)c(=O)[nH]c2=O)CC1N=[N+]=[N-] (stereo not given in full) | > 100 µM | 6.22 | > 100 µM |
| COC(=O)[C@H](Cc1ccccc1)NP(=O)(OCCC#N)OCC1OC(n2cc(C)c(=O)[nH]c2=O)CC1N=[N+]=[N-] (stereo not given in full) | > 100 µM | < 6.00 | > 100 µM |
| Cc1cn([C@H]2C[C@H](F)[C@@H](CO)O2)c(=O)[nH]c1=O [ALOVUDINE] | 8.6 µM | 9.00 |  |
| COC(=O)[C@H](Cc1c[nH]c2ccccc12)NP(=O)(OC)OCC1OC(n2cc(C)c(=O)[nH]c2=O)CC1F (stereo not given in full) | > 100 µM | 6.54 | > 100 µM |
| COC(=O)[C@H](Cc1c[nH]c2ccccc12)NP(=O)(O)OC[C@H]1O[C@@H](n2cc(C)c(=O)[nH]c2=O)C[C@@H]1N=[N+]=[N-] | > 100 µM | 8.00 | > 100 µM |
| COC(=O)[C@H](Cc1c[nH]c2ccccc12)NP(=O)(O)OCC1OC(n2cc(C)c(=O)[nH]c2=O)CC1F (stereo not given in full) | > 100 µM | 6.05 | 35.1 µM |
| COC(=O)[C@H](Cc1ccccc1)NP(=O)(OC)OCC1OC(n2cc(C)c(=O)[nH]c2=O)CC1F (stereo not given in full) | > 100 µM | < 6.68 | > 100 µM |
| COC(=O)[C@H](Cc1ccccc1)NP(=O)(OC)OCC1OC(n2cc(C)c(=O)[nH]c2=O)CC1N=[N+]=[N-] (stereo not given in full) | > 100 µM | 7.05 | > 50 µM |
| COC(=O)[C@H](Cc1c[nH]c2ccccc12)NP(=O)(OCCC#N)OCC1OC(n2cc(C)c(=O)[nH]c2=O)CC1F (stereo not given in full) | > 100 µM | 6.70 | > 95.6 µM |
| COC(=O)[C@H](Cc1c[nH]c2ccccc12)NP(=O)(OC)OCC1OC(n2cc(C)c(=O)[nH]c2=O)CC1N=[N+]=[N-] (stereo not given in full) | > 50 µM | 6.52 | > 50 µM |
| COC(=O)[C@H](Cc1c[nH]c2ccccc12)NP(=O)(OCCC#N)OCC1OC(n2cc(C)c(=O)[nH]c2=O)CC1N=[N+]=[N-] (stereo not given in full) | > 100 µM | 6.40 | > 100 µM |
| Cc1cn([C@H]2C[C@H](N=[N+]=[N-])[C@@H](CO)O2)c(=O)[nH]c1=O [ZIDOVUDINE] | > 100 µM | 7.10 | 14.3 µM |
